Assay [1] has as its target human glucagon receptor (GCGR) (Homo sapiens (Human), UniProt P47871). The experiment in a line: Inhibition of 125I-glucagon binding to membranes from HEK293 cells expressing the human glucagon receptor. The conditions noted are these: membranes of hGluc-1 HEK cells, 125I-glucagon 0.3 nM. The method in brief: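 Compound displacement of ¹²⁵I-glucagon (0.3 nM) was run for 2 h at room temperature in 50 mM HEPES pH 7.4 with 5 mM MgCl2, 1 mM CaCl2 and 0.2% BSA, using 6 μg/well membranes from stably transfected hGCGR HEK293 cells. Filter-bound counts gave IC50s, expressed as Ki.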

The target of another assay is human GCGR (Homo sapiens (Human), UniProt P47871). Kind of assay: Cellular functional assay, cAMP readout (glucagon-stimulated cAMP in HEK293 cells expressing human GCGR). It is filed as cell-based. The conditions noted are these: hGluc-1 HEK cells. The essentials:
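HEK293 cells stably transfected with full-length human GCGR were exposed to compound for 30 min before a 5-min challenge with […] (final) glucagon. Readout was TR-FRET (LANCE) cAMP versus standard curve; IC50s fitted by non-linear regression and converted to Ki values.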

Where [2] appears, read: meta-substituted comparative compounds (Table 3).
Setting [3] is: 2 hours room temperature, IC50 converted to Ki, average if tested more than once.
Where [4] appears, read: LANCE TR-FRET, IC50 converted to Ki, average if tested more than once.

Chain of human GCGR (P47871 26-477): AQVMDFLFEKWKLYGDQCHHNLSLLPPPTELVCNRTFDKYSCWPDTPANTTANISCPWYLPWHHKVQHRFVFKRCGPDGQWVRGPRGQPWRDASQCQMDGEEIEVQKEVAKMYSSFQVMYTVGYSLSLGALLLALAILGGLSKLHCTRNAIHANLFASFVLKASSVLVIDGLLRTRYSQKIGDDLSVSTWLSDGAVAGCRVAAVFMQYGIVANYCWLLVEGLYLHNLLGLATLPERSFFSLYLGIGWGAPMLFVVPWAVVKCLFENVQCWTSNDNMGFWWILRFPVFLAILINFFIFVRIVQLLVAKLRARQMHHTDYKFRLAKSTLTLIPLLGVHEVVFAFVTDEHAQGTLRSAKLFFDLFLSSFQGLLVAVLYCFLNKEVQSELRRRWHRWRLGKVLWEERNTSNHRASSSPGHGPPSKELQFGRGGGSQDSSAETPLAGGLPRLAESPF
Chain of human glucagon receptor (GCGR) (P47871 26-477): as above

Take `O=C(O)CCNC(=O)c1ccc(-c2cc(Cl)cc(C(=O)Nc3ccc(-c4ccc(Cl)cc4)cc3)c2)cn1` [Compound M5, 3-(5-(3-chloro-5-((4′-chloro-[1,1′-biphenyl]-4-yl)carbamoyl)phenyl)picolinamido)propanoic acid, reference compound]: the Ki in assay [1] (setting [2]) is greater than 5400 nM; at human GCGR (setting [2]), greater than 10400 nM.
In the case of `O=C(O)CCNC(=O)c1ccc(-c2cc(Cl)ccc2CNc2ccc(-c3ccc(F)cc3F)c(F)c2)cn1` [Compound 89, 3-(5-(5-chloro-2-(((2,2′,4′-trifluoro-[1,1′-biphenyl]-4-yl)amino)methyl)phenyl)picolinamido)propanoic acid], the Ki in assay [1] (setting [3]) was 60.6 nM; at human GCGR (setting [4]) it was 550 nM.
In the same order, the values of `O=C(O)CCNC(=O)c1ccc(-c2cc(Cl)ccc2CNc2ccc(-c3ccc(Cl)cc3)c(F)c2)cn1` [Compound 91, 3-(5-(5-chloro-2-(((4′-chloro-2-fluoro-[1,1′-biphenyl]-4-yl)amino)methyl)phenyl)picolinamido)propanoic acid] are 33.4 nM and 295 nM.
On the same counts, the results for `Cc1cc(Cl)ccc1-c1ccc(NCc2cc(Cl)c(C(F)(F)F)cc2-c2ccc(C(=O)NCCC(=O)O)nc2)cc1` [Compound 77, 3-(5-(4-chloro-2-(((4′-chloro-2′-methyl-[1,1′-biphenyl]-4-yl)amino)methyl)-5-(trifluoromethyl)phenyl)picolinamido)propanoic acid] are 24.2 nM and 22.4 nM.
In the same order, the values of `N#Cc1cc(NCc2cc(F)c(F)cc2-c2ccc(C(=O)NCCC(=O)O)nc2)ccc1-c1ccc(Cl)cc1` [Compound 110, 3-(5-(2-(((4′-chloro-2-cyano-[1,1′-biphenyl]-4-yl)amino)methyl)-4,5-difluorophenyl)picolinamido)propanoic acid] are 43.5 nM and 170 nM.
As to `O=C(O)CCNC(=O)c1ccc(-c2cc(F)c(F)cc2C(=O)Nc2ccc(-c3ccc(F)cc3)cc2)cn1` [Compound 95, 3-(5-(4,5-difluoro-2-((4′-fluoro-[1,1′-biphenyl]-4-yl)carbamoyl)phenyl)picolinamido)propanoic acid], the results for the Ki (in assay [1] (setting [3]); on human GCGR (setting [4])) were 139 nM and 600 nM, respectively.
Take `O=C(O)CCNC(=O)c1ccc(-c2cc(Cl)cc(CNc3ccc(-c4ccc(F)cc4)cc3)c2)cn1` [Compound M1, 3-(5-(3-chloro-5-(((4′-fluoro-[1,1′-biphenyl]-4-yl)amino)methyl)phenyl)picolinamido)propanoic acid, reference compound]: the values for the Ki (in assay [1] (setting [2]); on human GCGR (setting [2])) were greater than 2700 nM and greater than 10400 nM, respectively.
In the case of `O=C(O)CCNC(=O)c1ccc(-c2cc(C(F)(F)F)ccc2CNc2ccc(-c3ccc(F)c(Cl)c3)c(Cl)c2)cn1` [Compound 35, 3-(5-(2-(((2,3′-dichloro-4′-fluoro-[1,1′-biphenyl]-4-yl)amino)methyl)-5-(trifluoromethyl)phenyl)picolinamido)propanoic acid], the inhibition constant (Ki) came out at 14.4 nM in assay [1] (setting [3]) and 35 nM at human GCGR (setting [4]).
On to `O=C(O)CCNC(=O)c1ccc(-c2cc(Cl)ccc2CNc2ccc(-c3ccc(C(F)(F)F)cc3)c(F)c2)cn1` [Compound 90, 3-(5-(5-chloro-2-(((2-fluoro-4′-(trifluoromethyl)-[1,1′-biphenyl]-4-yl)amino)methyl)phenyl)picolinamido)propanoic acid], for which the Ki came out at 33.6 nM in assay [1] (setting [3]) and 281 nM at human GCGR (setting [4]).
On the same counts, the results for `O=C(O)CCNC(=O)c1ccc(-c2cc(F)c(F)cc2CNc2ccc(-c3cccc(C(F)(F)F)c3Cl)c(Cl)c2)cn1` [Compound 107, 3-(5-(2-(((2,2′-dichloro-3′-(trifluoromethyl)-[1,1′-biphenyl]-4-yl)amino)methyl)-4,5-difluorophenyl)picolinamido)propanoic acid] are 23.7 nM and 54.8 nM.
In the same order, the values of `O=C(O)CCNC(=O)c1ccc(-c2cc(C(F)(F)F)cc(Cl)c2CNc2ccc(-c3ccc(Cl)cc3)c(Cl)c2)cn1` [Compound 74, 3-(5-(3-chloro-2-(((2,4′-dichloro-[1,1′-biphenyl]-4-yl)amino)methyl)-5-(trifluoromethyl)phenyl)picolinamido)propanoic acid] are 14.9 nM and 7.1 nM.
`Cc1cc(-c2ccc(NCc3ccc(Cl)cc3-c3ccc(C(=O)NCCC(=O)O)nc3)cc2Cl)ccc1F` [Compound 139, 3-(5-(5-chloro-2-(((2-chloro-4′-fluoro-3′-methyl-[1,1′-biphenyl]-4-yl)amino)methyl)phenyl)picolinamido)propanoic acid]: the Ki in assay [1] (setting [3]) stood at 29.1 nM; at human GCGR (setting [4]), 120 nM.
In the same order, the values of `O=C(O)CCNC(=O)c1ccc(-c2cc(C(F)(F)F)c(Cl)cc2CNc2ccc(-c3ccc(Cl)cc3)c(Cl)c2)cn1` [Compound 78, 3-(5-(4-chloro-2-(((2,4′-dichloro-[1,1′-biphenyl]-4-yl)amino)methyl)-5-(trifluoromethyl)phenyl)picolinamido)propanoic acid] are 24 nM and 25 nM.
As for `O=C(O)CCNC(=O)c1ccc(-c2cc(Cl)ccc2CNc2ccc(-c3ccc(F)c(Cl)c3)cc2)cn1` [Compound 150, 3-(5-(5-chloro-2-(((3′-chloro-4′-fluoro-[1,1′-biphenyl]-4-yl)amino)methyl)phenyl)picolinamido)propanoic acid], the Ki in assay [1] (setting [3]) came out at 27.7 nM; at human GCGR (setting [4]) it was 73.3 nM.
On the same counts, the results for `Cc1cc(NCc2c(Cl)cc(C(F)(F)F)cc2-c2ccc(C(=O)NCCC(=O)O)nc2)ccc1-c1ccc(Cl)cc1` [Compound 75, 3-(5-(3-chloro-2-(((4′-chloro-2-methyl-[1,1′-biphenyl]-4-yl)amino)methyl)-5-(trifluoromethyl)phenyl)picolinamido)propanoic acid] are 27.8 nM and 6.7 nM.
Regarding `O=C(O)CCNC(=O)c1ccc(-c2cc(Cl)ccc2CNc2ccc(-c3ccc(Cl)c(C(F)(F)F)c3)c(Cl)c2)cn1` [Compound 169, 3-(5-(5-chloro-2-(((2,4′-dichloro-3′-(trifluoromethyl)-[1,1′-biphenyl]-4-yl)amino)methyl)phenyl)picolinamido)propanoic acid], the Ki in assay [1] (setting [3]) amounted to 39 nM; on human GCGR (setting [4]), 142 nM.
In the same order, the values of `O=C(O)CCNC(=O)c1ccc(-c2cc(C(F)(F)F)ccc2CNc2ccc(-c3ccc(Cl)cc3)c(Cl)c2)cn1` [Compound 28, 3-(5-(2-(((2,4′-dichloro-[1,1′-biphenyl]-4-yl)amino)methyl)-5-(trifluoromethyl)phenyl)picolinamido)propanoic acid] are 28 nM and 31.6 nM.
On the same counts, the results for `O=C(O)CCNC(=O)c1ccc(-c2cc(Cl)ccc2CNc2ccc(-c3ccc(F)cc3)cc2)cn1` [Compound 15, 3-(5-(5-chloro-2-(((4′-fluoro-[1,1′-biphenyl]-4-yl)amino)methyl)phenyl)picolinamido)propanoic acid] are 33.9 nM and 90.6 nM.
In the same order, the values of `O=C(O)CCNC(=O)c1ccc(-c2cc(Cl)ccc2CNc2ccc(-c3ccc(Cl)c(Cl)c3)c(C(F)(F)F)c2)cn1` [Compound 55, 3-(5-(5-chloro-2-(((3′,4′-dichloro-2-(trifluoromethyl)-[1,1′-biphenyl]-4-yl)amino)methyl)phenyl)picolinamido)propanoic acid] are 156 nM and 650 nM.
Turning to `O=C(O)CCNC(=O)c1ccc(-c2cc(C(F)(F)F)ccc2CNc2ccc(-c3ccc(Cl)cc3F)c(Cl)c2)cn1` [Compound 37, 3-(5-(2-(((2,4′-dichloro-2′-fluoro-[1,1′-biphenyl]-4-yl)amino)methyl)-5-(trifluoromethyl)phenyl)picolinamido)propanoic acid], the inhibitory constant (Ki) in assay [1] (setting [3]) stood at 23.2 nM; at human GCGR (setting [4]) it was 30 nM.
For `O=C(O)CCNC(=O)c1ccc(-c2ccccc2CNc2ccc(-c3ccccc3)cc2)cn1` [Compound 1, 3-(5-(2-(([1,1′-biphenyl]-4-ylamino)methyl)phenyl)picolinamido)propanoic acid], the Ki is greater than 5400 nM in assay [1] (setting [3]) and greater than 10400 nM on human GCGR (setting [4]).
In the same order, the values of `O=C(O)CCNC(=O)c1ccc(-c2ccccc2CNc2ccc(-c3ccc(C(F)(F)F)cc3)cc2)cn1` [Compound 9] are 95.7 nM and 550 nM.
On the same counts, the results for `O=C(O)CCNC(=O)c1ccc(-c2cc(Cl)ccc2CNc2ccc(-c3ccc(F)cc3C(F)(F)F)cc2)cn1` [Compound 149, 3-(5-(5-chloro-2-(((4′-fluoro-2′-(trifluoromethyl)-[1,1′-biphenyl]-4-yl)amino)methyl)phenyl)picolinamido)propanoic acid] are 40 nM and 430 nM.
On the same counts, the results for `O=C(O)CCNC(=O)c1ccc(-c2ccc(Cl)cc2CNc2ccc(-c3ccc(Cl)cc3)cc2)cn1` [Compound 4, 3-(5-(4-chloro-2-(((4′-chloro-[1,1′-biphenyl]-4-yl)amino)methyl)phenyl)picolinamido)propanoic acid] are 64.9 nM and 210 nM.
In the case of `N#Cc1cc(NCc2cc(F)c(F)cc2-c2ccc(C(=O)NCCC(=O)O)nc2)ccc1-c1ccc(Cl)cc1Cl` [Compound 114, 3-(5-(2-(((2′,4′-dichloro-2-cyano-[1,1′-biphenyl]-4-yl)amino)methyl)-4,5-difluorophenyl)picolinamido)propanoic acid], the values for the Ki (in assay [1] (setting [3]); at human GCGR (setting [4])) were 40.4 nM and 73.5 nM, respectively.

Source of the values: patent publication US8748624B2, “Picolinamido-propanoic acid derivatives useful as glucagon receptor antagonists” (Janssen Pharmaceutica NV, priority 2011, dated 2014).
